From ChEMBL document CHEMBL1201862, “PubChem BioAssay data set” (2004)
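Step 1: Grow cells in 96-well plates. Step 2: Expose to compound for 48 hours at 5 concentrations. Step 3: Interpolate endpoints linearly; if unreached, use highest concentration. The concentration for 50% growth inhibition is given as GI50.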 Activity calls are given as the source filed them. Rule as the data show it: active = GI50 up to about 1.1 µM and inactive = higher.

Experiments:
Assay in all cases: NCI tumour cell line growth inhibition, 48 h
EKVX = system: EKVX
BT-549 = system: BT-549
NCI-H226 = system: NCI-H226
HCC 2998 = system: HCC 2998
RXF 393 = system: RXF 393
HOP-92 = system: HOP-92
COLO 205 = system: COLO 205
Hs-578T = system: Hs-578T
UACC-62 = system: UACC-62
OVCAR-3 = system: OVCAR-3
SN12C = system: SN12C
SNB-75 = system: SNB-75
ACHN = system: ACHN
SF-539 = system: SF-539
CAKI-1 = system: CAKI-1
DU-145 = system: DU-145
NCI/ADR-RES = system: NCI/ADR-RES
IGROV-1 = system: IGROV-1
RPMI-8226 = system: RPMI-8226
M14 = system: M14
K562 = system: K562
TK-10 = system: TK-10
HCT-116 = system: HCT-116
HCT-15 = system: HCT-15
NCI-H23 = system: NCI-H23
HOP-62 = system: HOP-62
OVCAR-4 = system: OVCAR-4
KM12 = system: KM12
MDA-N = system: MDA-N
UACC-257 = system: UACC-257
A549 = system: A549
MDA-MB-231 = system: MDA-MB-231
SK-OV-3 = system: SK-OV-3
SK-MEL-28 = system: SK-MEL-28
U-251 = system: U-251
OVCAR-8 = system: OVCAR-8
MDA-MB-435 = system: MDA-MB-435
PC-3 = system: PC-3
CCRF-CEM = system: CCRF-CEM
SNB-19 = system: SNB-19
SW-620 = system: SW-620
MOLT-4 = system: MOLT-4
SF-295 = system: SF-295
SR = system: SR
OVCAR-5 = system: OVCAR-5
Malme-3M = system: Malme-3M
T47D = system: T47D
SF-268 = system: SF-268
SK-MEL-2 = system: SK-MEL-2
MCF7 = system: MCF7
786-0 = system: 786-0
LOX IMVI = system: LOX IMVI
HT-29 = system: HT-29
NCI-H460 = system: NCI-H460
SK-MEL-5 = system: SK-MEL-5
NCI-H522 = system: NCI-H522
HL-60 = system: HL-60
UO-31 = system: UO-31
A498 = system: A498

CCN(CC)CCC(=O)c1ccc(Oc2ccccc2)cc1
GI50 (EKVX): 20.8 µM (inactive) | GI50 (BT-549): 18.7 µM (inactive) | GI50 (NCI-H226): > 100 µM (inactive) | GI50 (HCC 2998): 17.6 µM (inactive) | GI50 (RXF 393): 18.9 µM (inactive) | GI50 (HOP-92): 15.8 µM (inactive) | GI50 (COLO 205): 17.7 µM (inactive) | GI50 (Hs-578T): 18.2 µM (inactive) | GI50 (UACC-62): 15.9 µM (inactive) | GI50 (OVCAR-3): 19.7 µM (inactive) | GI50 (SN12C): 17.6 µM (inactive) | GI50 (SNB-75): 19.5 µM (inactive) | GI50 (ACHN): 15.8 µM (inactive) | GI50 (SF-539): 18.6 µM (inactive) | GI50 (CAKI-1): 16.7 µM (inactive) | GI50 (DU-145): 27.7 µM (inactive) | GI50 (NCI/ADR-RES): 21.9 µM (inactive) | GI50 (IGROV-1): 17.1 µM (inactive) | GI50 (RPMI-8226): 5.79 µM (inactive) | GI50 (M14): 38.1 µM (inactive) | GI50 (K562): 35.3 µM (inactive) | GI50 (TK-10): 14.2 µM (inactive) | GI50 (HCT-116): 17.9 µM (inactive) | GI50 (HCT-15): 17.4 µM | GI50 (NCI-H23): 25.1 µM (inactive) | GI50 (HOP-62): 27.5 µM (inactive) | GI50 (OVCAR-4): 23.9 µM (inactive) | GI50 (KM12): 13.1 µM (inactive) | GI50 (MDA-N): 16.5 µM (inactive) | GI50 (UACC-257): 17.2 µM (inactive) | GI50 (A549): > 100 µM (inactive) | GI50 (MDA-MB-231): 20.7 µM (inactive) | GI50 (SK-OV-3): > 100 µM (inactive) | GI50 (SK-MEL-28): 17.5 µM (inactive) | GI50 (U-251): 17.9 µM (inactive) | GI50 (OVCAR-8): 39.7 µM (inactive) | GI50 (MDA-MB-435): 20.7 µM (inactive) | GI50 (PC-3): 39 µM (inactive) | GI50 (CCRF-CEM): 22.1 µM (inactive) | GI50 (SNB-19): 18.9 µM (inactive) | GI50 (SW-620): 17.1 µM (inactive) | GI50 (MOLT-4): 20 µM (inactive) | GI50 (SF-295): 55.3 µM (inactive) | GI50 (SR): 39.4 µM (inactive) | GI50 (OVCAR-5): 20.7 µM (inactive) | GI50 (Malme-3M): 15.1 µM (inactive) | GI50 (T47D): 19 µM (inactive) | GI50 (SF-268): 20.8 µM (inactive) | GI50 (SK-MEL-2): 97.7 µM (inactive) | GI50 (MCF7): 17.9 µM (inactive) | GI50 (786-0): 15.6 µM (inactive) | GI50 (LOX IMVI): 16.8 µM (inactive) | GI50 (HT-29): 19.1 µM (inactive)

O=C1NC(=S)NC(=O)C1C(c1ccc([N+](=O)[O-])cc1)C1C(=O)NC(=S)NC1=O.c1ccncc1
GI50 (EKVX): > 100 µM (inactive) | GI50 (BT-549): > 100 µM (inactive) | GI50 (NCI-H226): > 100 µM (inactive) | GI50 (RXF 393): > 100 µM (inactive) | GI50 (HOP-92): > 100 µM (inactive) | GI50 (NCI-H460): > 100 µM (inactive) | GI50 (COLO 205): > 100 µM (inactive) | GI50 (Hs-578T): > 100 µM (inactive) | GI50 (UACC-62): > 100 µM (inactive) | GI50 (OVCAR-3): > 100 µM (inactive) | GI50 (SN12C): > 100 µM (inactive) | GI50 (ACHN): > 100 µM (inactive) | GI50 (CAKI-1): > 100 µM (inactive) | GI50 (DU-145): > 100 µM (inactive) | GI50 (NCI/ADR-RES): > 100 µM (inactive) | GI50 (IGROV-1): > 100 µM (inactive) | GI50 (RPMI-8226): > 100 µM (inactive) | GI50 (M14): > 100 µM (inactive) | GI50 (K562): > 100 µM (inactive) | GI50 (TK-10): > 100 µM (inactive) | GI50 (HCT-116): > 100 µM (inactive) | GI50 (SK-MEL-5): > 100 µM (inactive) | GI50 (HCT-15): > 100 µM | GI50 (NCI-H23): > 100 µM (inactive) | GI50 (HOP-62): > 100 µM (inactive) | GI50 (OVCAR-4): > 100 µM (inactive) | GI50 (KM12): > 100 µM (inactive) | GI50 (MDA-N): > 100 µM (inactive) | GI50 (UACC-257): > 100 µM (inactive) | GI50 (A549): > 100 µM (inactive) | GI50 (NCI-H522): > 100 µM (inactive) | GI50 (MDA-MB-231): > 100 µM (inactive) | GI50 (SK-MEL-28): > 100 µM (inactive) | GI50 (U-251): > 100 µM (inactive) | GI50 (OVCAR-8): > 100 µM (inactive) | GI50 (MDA-MB-435): > 100 µM (inactive) | GI50 (PC-3): > 100 µM (inactive) | GI50 (CCRF-CEM): > 100 µM (inactive) | GI50 (SNB-19): > 100 µM (inactive) | GI50 (HL-60): > 100 µM (inactive) | GI50 (SW-620): > 100 µM (inactive) | GI50 (MOLT-4): > 100 µM (inactive) | GI50 (SF-295): > 100 µM (inactive) | GI50 (UO-31): > 100 µM (inactive) | GI50 (OVCAR-5): > 100 µM (inactive) | GI50 (T47D): > 100 µM (inactive) | GI50 (SK-MEL-2): > 100 µM (inactive) | GI50 (A498): > 100 µM (inactive) | GI50 (MCF7): > 100 µM (inactive) | GI50 (786-0): > 100 µM (inactive) | GI50 (LOX IMVI): > 100 µM (inactive) | GI50 (HT-29): > 100 µM (inactive)

COc1cc(O)c2c(=O)c(OC)c(-c3ccc4c(c3)OCO4)oc2c1OC
GI50 (EKVX): 39 µM (inactive) | GI50 (BT-549): 13.4 µM (inactive) | GI50 (NCI-H226): > 50 µM (inactive) | GI50 (HCC 2998): > 50 µM (inactive) | GI50 (RXF 393): 18.9 µM (inactive) | GI50 (HOP-92): 7.6 µM (inactive) | GI50 (NCI-H460): > 50 µM (inactive) | GI50 (COLO 205): > 50 µM (inactive) | GI50 (Hs-578T): 28.1 µM (inactive) | GI50 (UACC-62): > 50 µM (inactive) | GI50 (OVCAR-3): > 50 µM (inactive) | GI50 (SN12C): > 50 µM (inactive) | GI50 (SNB-75): 11.6 µM (inactive) | GI50 (ACHN): > 50 µM (inactive) | GI50 (SF-539): 18.5 µM (inactive) | GI50 (CAKI-1): > 50 µM (inactive) | GI50 (DU-145): > 50 µM (inactive) | GI50 (NCI/ADR-RES): > 50 µM (inactive) | GI50 (IGROV-1): > 50 µM (inactive) | GI50 (M14): > 50 µM (inactive) | GI50 (K562): > 50 µM (inactive) | GI50 (TK-10): > 50 µM (inactive) | GI50 (HCT-116): 49.7 µM (inactive) | GI50 (SK-MEL-5): 22.5 µM (inactive) | GI50 (HCT-15): > 50 µM | GI50 (NCI-H23): > 50 µM (inactive) | GI50 (HOP-62): 21.8 µM (inactive) | GI50 (OVCAR-4): > 50 µM (inactive) | GI50 (KM12): > 50 µM (inactive) | GI50 (MDA-N): > 50 µM (inactive) | GI50 (UACC-257): > 50 µM (inactive) | GI50 (A549): > 50 µM (inactive) | GI50 (NCI-H522): > 50 µM (inactive) | GI50 (MDA-MB-231): 32 µM (inactive) | GI50 (SK-OV-3): 21.7 µM (inactive) | GI50 (SK-MEL-28): > 50 µM (inactive) | GI50 (U-251): 12.9 µM (inactive) | GI50 (OVCAR-8): 19.1 µM (inactive) | GI50 (MDA-MB-435): > 50 µM (inactive) | GI50 (PC-3): > 50 µM (inactive) | GI50 (CCRF-CEM): > 50 µM (inactive) | GI50 (SNB-19): 25.9 µM (inactive) | GI50 (HL-60): > 50 µM (inactive) | GI50 (SW-620): > 50 µM (inactive) | GI50 (MOLT-4): > 50 µM (inactive) | GI50 (SF-295): 29 µM (inactive) | GI50 (UO-31): > 50 µM (inactive) | GI50 (OVCAR-5): > 50 µM (inactive) | GI50 (Malme-3M): > 50 µM (inactive) | GI50 (T47D): > 50 µM (inactive) | GI50 (SF-268): 21.7 µM (inactive) | GI50 (SK-MEL-2): > 50 µM (inactive) | GI50 (A498): > 50 µM (inactive) | GI50 (MCF7): > 50 µM (inactive) | GI50 (786-0): 38.9 µM (inactive) | GI50 (LOX IMVI): > 50 µM (inactive) | GI50 (HT-29): > 50 µM (inactive)
